Measurements reported in patent US20250221997A1, “TYK2 INHIBITOR FORMULATIONS AND METHODS OF MAKING THE SAME” (Takeda Pharmaceutical Company Limited, priority 2022, published 2025).
Values after ≈ are worked out from the molar mass of the structure shown. “Also recorded” adds a separate entry of the source.

Legend:
Format in all cases: physicochemical
[1] = pKa, dissociation constant and pH of saturated aqueous solution; conditions: read-out: pKa of the protonated form
Description: The pKa of the protonated form of Compound 1 was determined to be 1.94±0.01. The pH of a saturated aqueous solution of Compound 1 was 8.6.

[2] = Solubility of Compound 1 polymorphs in aqueous systems, buffer solutions and biorelevant media; conditions: for Aqueous Solubility: Form C Lot: a, Form A Lot: b
[3] = Solubility of drug substance in excipient Vitamin E TPGS
Description: Vitamin E TPGS is a commercially available, non-ionic surfactant, derived from Vitamin E. It is commonly used to enhance the bioavailability of orally administered poorly water-soluble drugs.

[4] = Hygroscopicity (water sorption vs relative humidity)
[5] = Polymorph screening, competitive slurry studies and humidity storage (form stability)
Description: The key formulation challenge presented by Compound 1 was poor aqueous solubility. This could possibly limit absorption in vivo.

In the case of `CNc1cc(Nc2cccn(-c3ccccn3)c2=O)nc2c(C(=O)N[C@@H]3CC[C@H]3OC)cnn12` [Compound 1], the pKa [1] is reported as 1.94, the solubility at 48 h ([2]; FaSSGF, pH 1.42, fassgf or other biorelevant, thermodynamic from solid) is reported as 0.0346 mg/mL (≈ 75.1 µM) and the solubility at 48 h ([2]; aqueous buffer, thermodynamic from solid, Initial Buffer pH 2.98, pH at 48 Hours 3.01, average of two runs) is reported as 0.0189 mg/mL (≈ 41 µM). It also gave a solubility at 48 h ([2]; aqueous buffer, thermodynamic from solid, Initial Buffer pH 4.46, pH at 48 Hours 4.49, average of two runs) of 0.0133 mg/mL (≈ 28.9 µM), a solubility at 48 h ([2]; aqueous buffer, thermodynamic from solid, Initial Buffer pH 6.81, pH at 48 Hours 6.75, average of two runs) of 0.0041 mg/mL (≈ 8.9 µM) and a solubility at 48 h ([2]; pH 8.6, thermodynamic from solid, Unbuffered water, pH at 48 Hours 8.6, average of three runs) of 0.0055 mg/mL (≈ 11.9 µM). The solubility at 48 h ([2]; simulated gastric fluid, thermodynamic from solid, Initial Buffer pH 1.21, pH at 48 Hours 1.19, average of two runs) was 0.0581 mg/mL (≈ 126 µM), the solubility at 48 h ([2]; thermodynamic from solid, FaSSIF (pH 1.64), pH at 48 Hours 1.50, average of two runs) was 0.0291 mg/mL (≈ 63.2 µM) and the solubility at 48 h ([2]; thermodynamic from solid, FeSSIF (pH 5.03), pH at 48 Hours 5.03, average of two runs) was 0.041 mg/mL (≈ 89 µM). The “solubility in the excipient Vitamin E TPGS” value [3] was “high solubility”.
Compound `CNc1cc(Nc2cccn(-c3ccccn3)c2=O)nc2c(C(=O)N[C@@H]3CC[C@H]3OC)cnn12` [Form C] has an Aqueous Solubility ([2]; 10 mM HCl, pH 2.0) of 0.058 mg/mL, an Aqueous Solubility ([2]; 50 mM Acetate buffer, pH 5.0) of 0.013 mg/mL and an Aqueous Solubility ([2]; 50 mM Phosphate buffer, pH 6.8) of 0.004 mg/mL. For the same compound, the solubility ([2]; FaSSIF, pH 6.5, fassif, thermodynamic from solid) was 0.029 mg/mL (≈ 63 µM), the Aqueous Solubility ([2]; FaSSIF, pH 6.5) was 0.029 mg/mL and the Aqueous Solubility ([2]; FcSSIF, pH 5.0) was 0.041 mg/mL. For the same compound, the Aqueous Solubility ([2]; SGF, pH 1.2 (0.1% Triton X100)) was 0.035 mg/mL, the solubility ([2]; aqueous buffer, thermodynamic from solid, 50 mM Acetate buffer, pH 5.0) was 0.013 mg/mL (≈ 28.2 µM) and the solubility ([2]; aqueous buffer, thermodynamic from solid, 50 mM Phosphate buffer, pH 6.8) was 0.004 mg/mL (≈ 8.69 µM). For the same compound, the solubility ([2]; aqueous with cosolvent or surfactant or cyclodextrin, thermodynamic from solid, SGF, pH 1.2 (0.1% Triton X100)) was 0.035 mg/mL (≈ 76 µM), the solubility ([2]; simulated gastric fluid, thermodynamic from solid, 10 mM HCl, pH 2.0) was 0.058 mg/mL (≈ 126 µM) and the solubility ([2]; thermodynamic from solid, FeSSIF, pH 5.0) was 0.041 mg/mL (≈ 89 µM). For the same compound, the Hygroscopicity [4] was “Limited hygroscopicity”, the “Hygroscopicity, wt gain” value ([4]; at 75% RH) was “(1.75% wt gain at 75% RH)” and the water sorption ([4]; between 5-95% relative humidity) was 1.75%. The “relative stability of solid form” value ([5]; competitive slurry studies / polymorphs observed during development) was “most stable anhydrous, un-solvated form; also recorded: most stable polymorph observed to date”, the “Conversion of Form C to Form A” value ([5]; in water itself after 1 day) was “not observed” and the “water activity, aw, above which anhydrous Form C converts to hydrate Form A” value ([5]; solvent slurries) was 0.62-0.82. The “Conversion of Form C to Form A” value ([5]; storage at 90% RH at room temperature for 11 days) was “no conversion to Form A was observed”.
